In brackets after ≈: the same amount, converted by molar mass.
Columns and labels:
[1] = Identification of violacein metabolites in HLMs by LC-QTOF; type: in vitro ADME, human; settings: all samples after 120 min of reaction, 105 µM violacein, 5 mg/mL protein
Method: The metabolism of violacein was investigated using HLMs and RLMs, by incubating the samples for 120 min under four conditions (n = 1): zero sample, phase I-only incubation, phase I and II incubation, and phase II-only incubation, as described by Godoi et al..
For all samples, 25 µL of the 843 µM violacein stock solution was added to propylene tubes and evaporated to dryness under a nitrogen stream. The dried residue was then reconstituted with 2 µL of methanol, ensuring that the final organic solvent concentration remained below 1% to minimize any potential impact on microsomal activity, as described by Jia et al..
To assess phase I metabolism, 148 μL of an NADPH-regenerating system containing 1.1 mM NADP+, 10 mM glucose-6-phosphate, 1 U/mL glucose-6-phosphate dehydrogenase, 5 mM sodium citrate, and 66 mM magnesium chloride in 100 mM phosphate buffer (pH 7.4) were added to the tubes. The solutions were pre-incubated for 5 min at 37 °C and 300 rpm in an MTC 100 thermo shaker incubator, and metabolic reactions were initiated by adding 50 μL of HLMs or RLMs (20 mg/mL), to yield final concentrations of 105 µM violacein and 5 mg of microsomal protein/mL. […]
The acquired chromatograms and mass spectra were analyzed using Insight Explore software version 1.0.0.0 (Shimadzu, Kyoto, Japan). […]

Cryptococcus gastricus = test system: Cryptococcus gastricus; set-up: method as in PMID 26428920; settings: cited from earlier work
HT29 cells = test system: HT29 cells; set-up: method as in PMID 16889929; settings: cited from earlier work

## O=C1NC(c2c[nH]c3ccc(O)cc23)=C/C1=C1\C(=O)Nc2ccccc21 [violacein]
[1]
  Violacein metabolized: 30%
Cryptococcus gastricus
  MIC: 32 µg/mL (≈ 93.2 µM)
HT29 cells
  IC50: > 10 µM
